Tests used:
Format in all cases: biochemical
PDE1C = PDE1C (Homo sapiens, UniProt Q14123); assay: In vitro HTRF PDE1 inhibition assay (PDE1C)
Text: (§1) An exemplary procedure for the in vitro Homogenous Time Resolved Fluorescence assay, which can be used to determine the inhibitory action of compounds of the invention toward PDE1 or its isoforms, follows. The HTRF PDE1 assay utilized the HTRF (Homogenous Time Resolved Fluorescence) technology, which is based on the competition between unlabeled cyclic nucleotide and cyclic nucleotide labeled with XL665 for the binding to cyclic nucleotide-specific antibody labeled with cryptate. The HTRF signal is thus inversely proportional to the concentration of cyclic nucleotide being measured. Since phosphodiesterases break down cyclic nucleotides the HTRF signal was used to determine PDE activity. The Cisbio cGMP HTRF assay kit (Cat no: 62GM2PEC) was utilized. Cyclic GMP was diluted to 200 nM in HTRF assay buffer (1 mM CaCl2, 10 mM MgCl2, 10 mM Tris-HCl, 0.1% BSA, pH 7.4). 10 μl of compound or DMSO was diluted in 200 nM cyclic GMP solution and added to wells of a 96 well white plate to give 100 nM cyclic GMP in 1% DMSO final concentration. PDE (1A3, 1B or IC) was diluted to 2× working concentration in HTRF assay buffer with 2 μg/ml calmodulin, and 10 μl was added to initiate the reaction. The plate was then incubated for 45 minutes at 37° C. d2-Labelled cyclic GMP and anti-cGMP cryptate were diluted in 50 mM phosphate buffer, 0.8 M KF, 1% Triton X100, 0.2% BSA, pH 7.0. Following incubation 10 μl d2-cGMP, then 10 μl anti cGMP cryptate were added to each well and the plate was incubated for 45 minutes at room temperature. The plate was then read on Perkin Elmer Victor at 2 different FRET readings ex/emm 340 nm/665 nm and 340 nm/615 nm. Compounds having an IC50 of <1 μM, are denoted as +++. Compounds having an IC50 of 1−10 μM, are denoted as ++. Compounds having an IC50 of 10-100 μM, are denoted as +.

PDE1B = PDE1B (Homo sapiens, UniProt Q01064); assay: In vitro HTRF PDE1 inhibition assay (PDE1B)
Text: as §1

PDE1A3 = PDE1A3 (Homo sapiens, UniProt P54750); assay: In vitro HTRF PDE1 inhibition assay (PDE1A3)
Text: as §1

SMILES	IC50 (PDE1C; Table 24) [nM]	IC50 (PDE1B; Table 22) [nM]	IC50 (PDE1A3; Table 23) [nM]	IC50 (PDE1B; Table 25) [nM]	also measured
CCN1c2nn3c(C4CCOCC4)ncc3c(=O)n2CC1c1ccc(OC)cc1 (racemic) [Example 66]	1000 to 10000	< 1000	< 1000		
CC(C)c1ncc2c(=O)n3c(nn12)N(CC1CCOCC1)CC3 [Example 1, 8-Isopropyl-1-((tetrahydro-2H-pyran-4-yl)methyl)-2,3-dihydrodiimidazo[2,1-c:1′,5′-f][1,2,4]triazin-5(1H)-one]	1000 to 10000	< 1000	< 1000		
CC(C)c1ncc2c(=O)n3c(nn12)N(CCCc1ccccn1)CC3 [Example 11]	1000 to 10000	< 1000	< 1000		
CC(C)CN1CCCn2c1nn1c(C(C)C)ncc1c2=O [Example 16]	< 1000	< 1000	< 1000		
CC(C)c1ncc2c(=O)n3c(nn12)N(CCC1CCOCC1)CCC3 [Example 24]	< 1000	< 1000	< 1000		
CC(C)c1ncc2c(=O)n3c(nn12)N(CC1CCOCC1)CCC3 [Example 25]	< 1000	< 1000	< 1000		
CC(C)c1ncc2c(=O)n3c(nn12)N(Cc1ccc(C#N)cc1)CCC3 [Example 30]	< 1000	< 1000	< 1000		
CC(C)(C)CCN1CCn2c1nn1c(C3CCOCC3)ncc1c2=O [Example 55]	< 1000	< 1000	< 1000		
O=c1c2cnc(C3CCOCC3)n2nc2n1CCN2CCCC(F)(F)F [Example 56]	10000 to 100000	< 1000	1000 to 10000		
O=c1c2cnc(C3CCOCC3)n2nc2n1CCCN2Cc1ccccc1 [Example 59]	1000 to 10000	< 1000	< 1000		
COc1cccc(CN2CCn3c2nn2c(C4CCOCC4)ncc2c3=O)c1 [Example 158]				< 1000	
O=c1c2cnc(C3CCOCC3)n2nc2n1CCN2Cc1ccc(-c2ccccn2)cc1 [Example 161]				< 1000	
CC(C)CN1CCn2c1nn1c(C3CCOCC3)ncc1c2=O [Example 174]				< 1000	
CC(C)(C)CN1CCn2c1nn1c(C3CCOCC3)ncc1c2=O [Example 175]				< 1000	
CC(C)c1ncc2c(=O)n3c(nn12)N(Cc1ccc(Cl)cn1)CCC3 [Example 177]				< 1000	
O=c1c2cnc(C3CCC3)n2nc2n1CCCN2CC1CCOCC1 [Example 178]				< 1000	
O=c1c2cnc(C3CCC3)n2nc2n1CCCN2Cc1ccc(Cl)cn1 [Example 179]				< 1000	

SMILES	IC50 (PDE1C; Table 24) [nM]	IC50 (PDE1B; Table 22) [nM]	IC50 (PDE1A3; Table 23) [nM]	IC50 (PDE1B; Table 25) [nM]	also measured
COC(C)c1ncc2c(=O)n3c(nn12)N(CCC(C)(C)C)CCC3 (stereo not drawn) [Example 180]				< 1000	
COC(C)c1ncc2c(=O)n3c(nn12)N(CCCC(F)(F)F)CCC3 (stereo not drawn) [Example 181]				1000 to 10000	
O=c1c2cnc(C3CCOCC3)n2nc2n1CCCN2CCCC(F)(F)F [Example 182]				< 1000	
CC(C)CN1CCCn2c1nn1c(C3CCOCC3)ncc1c2=O [Example 183]				< 1000	
CC(C)(C)CN1CCCn2c1nn1c(C3CCOCC3)ncc1c2=O [Example 184]				< 1000	
CC(C)CCN1CCCn2c1nn1c(C3CCOCC3)ncc1c2=O [Example 185]				< 1000	
CC(C)(C)CCN1CCCn2c1nn1c(C3CCOCC3)ncc1c2=O [Example 186]				< 1000	
O=c1c2cnc(C3CCOCC3)n2nc2n1CCCN2CCC1(C(F)(F)F)CC1 [Example 188]					IC50 (PDE1C; Table 27): < 1000 nM; IC50 (PDE1A3; Table 26): < 1000 nM
O=c1c2cnc(C3CCOCC3)n2nc2n1CCCN2C[C@H]1CC[C@H](C(F)(F)F)CC1 [Example 192]				< 1000	
CO[C@H]1CC[C@@H](CN2CCCn3c2nn2c(C4CCOCC4)ncc2c3=O)CC1 [Example 194]				< 1000	
O=c1c2cnc(C3CCOCC3)n2nc2n1CCCN2C[C@H]1CC[C@@H](C(F)(F)F)CC1 [Example 195]				< 1000	
CCO[C@H]1CC[C@@H](CN2CCCn3c2nn2c(C4CCOCC4)ncc2c3=O)CC1 [Example 196]				< 1000	
O=c1c2cnc(C3CCOCC3)n2nc2n1CCCN2CC1CC1(F)F (stereo not drawn) [Example 197]				< 1000	
CC1CN(CCCC(F)(F)F)c2nn3c(C4CCOCC4)ncc3c(=O)n2C1 (stereo not drawn) [Example 198]				< 1000	
CC(C)c1ncc2c(=O)n3c(nn12)N(CC1CCOCC1)CC(C)(C)C3 [Example 199]				< 1000	
CC(C)c1ncc2c(=O)n3c(nn12)N(CC1CCOCC1)CC(F)(F)C3 [Example 201]				< 1000	
